Values quoted from earlier work as cited in patent US20230046278A1, “METHOD FOR COLOURING KERATIN MATERIAL, COMPRISING THE USE OF AN ORGANIC C1-C6 ALKOXYSILANE AND TWO STRUCTURALLY DIFFERENT CELLULOSE TYPES” (Henkel AG & Co. KGaA, priority 2019, published 2023).
Converted amounts (≈) assume the structure as drawn.

Details: 25° C.

solubility in water	Structure (SMILES)	other results
	CCN(Cc1cccc(S(=O)(=O)O)c1)c1ccc(C(=C2C=CC(=[N+](CC)Cc3cccc(S(=O)(=O)O)c3)C=C2)c2ccccc2S(=O)(=O)[O-])cc1 [Acid Blue 9]	water solubility: greater than 20 % by weight
more than 7 g/L	O=S(=O)(O)c1ccc(N=Nc2c(O)ccc3ccccc23)cc1 [Acid Orange 7, 4-[(2-hydroxy-1-naphthyl)azo]benzenesulfonate]	
above 40 g/L	O=[N+]([O-])c1cc([N+](=O)[O-])c2ccc(S(=O)(=O)O)cc2c1O [Acid Yellow 9, 8-hydroxy-5,7-dinitro-2-naphthalenesulfonic acid]	
	O=C(O)C1=NN(c2ccc(S(=O)(=O)O)cc2)C(=O)C1N=Nc1ccc(S(=O)(=O)O)cc1 (centres unmarked) [Acid Yellow 23, 4,5-dihydro-5-oxo-1-(4-sulfophenyl)-4-((4-sulfophenyl)azo)-1H-pyrazole-3-carboxylic acid]	solubility in water (in words): readily soluble

Structure (SMILES)	solubility in water	other results
Nc1cc(S(=O)(=O)O)cc2cc(S(=O)(=O)O)c(N=Nc3ccccc3)c(O)c12 [Acid Red 33, 5-amino-4-hydroxy-3-(phenylazo)-naphthalene-2,7-disulphonate]	2.5 g/L (≈ 5.9 mM)	
